The text below walks through data of US12202827B2, “Aldosterone synthase inhibitor” (DAMIAN PHARMA AG, priority 2016, dated 2025).

SMILES strings stand for the structures.

Data set [1] is described as follows: Hygroscopicity, open flasks in unconditioned ambient air for 24 hours. Conditions: open flask.
Protocol: 100 mg samples of the two crystalline salts were stored in open flasks for 24 hours side by side at room temperature in unconditioned ambient air and weight measurements occurred at time 0 and after 24 hours (Table 6).
A short description of data set [2]: Dynamic Vapour Sorption (DVS). The class given is physicochemical. The protocol: The Dynamic Vapour Sorption (DVS) studies were performed using a Surface Measurement Systems Ltd. DVS-1 No Video. The sample was loaded into a balance pan, typically 20-30 mg, and equilibrated at 0% RH. After the material was dried, the RH was increased with 10% per step for 1 hour per increment, ending at 95% RH. After completion of the sorption cycle, the sample was dried using the same method. The software used for data collection was DVSWin v3.01 No Video. Data analysis was performed using DVS Standard Analysis Suite v6.3.0 (Standard).

In the case of `N#Cc1ccc([C@H]2CCCc3cncn32)cc1.O=P(O)(O)O`, the “Hygroscopicity (assessment in words)” value in data set [1] (ambient air) is on record as “non-hygroscopic”. Also, the Absolute weight in data set [1] (room temperature, unconditioned ambient air) was found to be 103.9 mg. In addition, the Weight increase in data set [1] (room temperature, unconditioned ambient air, listed as Phosphate Salt) amounted to 0.57%. Also, in data set [2] (DVS sorption/desorption cycles), the “Reversibility of water uptake” value is reported as “reversible”. For the same molecule, the “Crystalline form upon DVS treatment (XRPD)” value in data set [2] (before and after DVS cycles) is “does not change”.
